Results: patent publication US9149038B2, “4-amino-6-(heterocyclic)picolinates and 6-amino-2-(heterocyclic)pyrimidine-4-carboxylates and their use as herbicides” (Dow AgroSciences LLC, priority 2013, dated 2015)
Like-named read-outs stand apart in the source and are kept apart here.

Legend:
[1] = tested on: Key Broadleaf Weed and Crop Species; experiment: Post-Emergent Test II: postemergent herbicidal activity, visual rating after 14 d (Table 7); type: in vivo; details: post-emergence, 336 h; for pest or weed control at 35 g/ha: 35 g ai/ha; for pest or weed control at 70 g/ha: 70 g ai/ha; for pest or weed control at 140 g/ha: 140 g ai/ha
In short: (§1)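 Track-sprayed young seedlings (first/second true leaf) at 187 L/ha across a 2-fold rate series from the high rate down to 1/16×. Kept in greenhouse at 23-29° C day, subirrigated. Injury rated by eye after 14 d, 0 = no injury, 100 = complete kill.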

[2] = tested on: Key Grass and Sedge Weeds as well as Grass Crops; experiment: Post-Emergent Test II: postemergent herbicidal activity, visual rating after 14 d (Table 8); type: in vivo; details: post-emergence, 336 h; for pest or weed control at 35 g/ha: 35 g ai/ha; for pest or weed control at 70 g/ha: 70 g ai/ha; for pest or weed control at 140 g/ha: 140 g ai/ha
In short: as §1

[3] = ABUTH: velvetleaf (Abutilon theophrasti), read-out: Visual Growth Reduction (%) 14 Days After Application ABUTH
[4] = AMARE: redroot pigweed (Amaranthus retroflexus), read-out: Visual Growth Reduction (%) 14 Days After Application AMARE
[5] = BRSNN: oilseed rape, canola (Brassica napus), read-out: Visual Growth Reduction (%) 14 Days After Application BRSNN
[6] = CHEAL: lambsquarters (Chenopodium album), read-out: Visual Growth Reduction (%) 14 Days After Application CHEAL
[7] = EPHHL: wild poinsettia (Euphorbia heterophylla), read-out: Visual Growth Reduction (%) 14 Days After Application EPHHL
[8] = HELAN: sunflower (Helianthus annuus), read-out: Visual Growth Reduction (%) 14 Days After Application HELAN
[9] = barnyardgrass (Echinochloa crus-galli), read-out: Visual Growth Reduction (%) 14 Days After Application, ECHCG
[10] = giant foxtail (Setaria faberi), read-out: Visual Growth Reduction (%) 14 Days After Application, SETFA
[11] = maize, corn (Zea mays), read-out: Visual Growth Reduction (%) 14 Days After Application, ZEAMX
[12] = rice (Oryza sativa), read-out: Visual Growth Reduction (%) 14 Days After Application, ORYSA
[13] = wheat, spring (Triticum aestivum), read-out: Visual Growth Reduction (%) 14 Days After Application, TRZAS
[14] = yellow nutsedge (Cyperus esculentus), read-out: Visual Growth Reduction (%) 14 Days After Application, CYPES

## COC(=O)c1nc(-c2c(F)ccc3c2OC(F)(F)O3)cc(N)c1Cl [Compound 90, Methyl 4-amino-3-chloro-6-(2,2,5-trifluorobenzo[d][1,3]dioxol-4-yl)picolinate]
[1]; [3]
  pest or weed control at 35 g/ha: 60 to 74%
  pest or weed control at 70 g/ha: 75 to 84%
  pest or weed control at 140 g/ha: 85 to 94%
[1]; [4]
  pest or weed control at 35 g/ha: 95 to 100%
  pest or weed control at 70 g/ha: 95 to 100%
  pest or weed control at 140 g/ha: 95 to 100%
[1]; [5]
  pest or weed control at 35 g/ha: 0 to 29%
  pest or weed control at 70 g/ha: 0 to 29%
  pest or weed control at 140 g/ha: 60 to 74%
[1]; [6]
  pest or weed control at 35 g/ha: 85 to 94%
  pest or weed control at 70 g/ha: 95 to 100%
  pest or weed control at 140 g/ha: 95 to 100%
[1]; [7]
  pest or weed control at 35 g/ha: 0 to 29%
  pest or weed control at 70 g/ha: 0 to 29%
  pest or weed control at 140 g/ha: 0 to 29%
[1]; [8]
  pest or weed control at 35 g/ha: 0 to 29%
  pest or weed control at 70 g/ha: 0 to 29%
  pest or weed control at 140 g/ha: 0 to 29%
[2]; [9]
  pest or weed control at 35 g/ha: 0 to 29%
  pest or weed control at 70 g/ha: 0 to 29%
  pest or weed control at 140 g/ha: 0 to 29%
[2]; [10]
  pest or weed control at 35 g/ha: 0 to 29%
  pest or weed control at 70 g/ha: 0 to 29%
  pest or weed control at 140 g/ha: 0 to 29%
[2]; [11]
  pest or weed control at 35 g/ha: 0 to 29%
  pest or weed control at 70 g/ha: 0 to 29%
  pest or weed control at 140 g/ha: 0 to 29%
[2]; [12]
  pest or weed control at 35 g/ha: 0 to 29%
  pest or weed control at 70 g/ha: 0 to 29%
  pest or weed control at 140 g/ha: 0 to 29%
[2]; [13]
  pest or weed control at 35 g/ha: 0 to 29%
  pest or weed control at 70 g/ha: 0 to 29%
  pest or weed control at 140 g/ha: 0 to 29%
[2]; [14]
  pest or weed control at 35 g/ha: 0 to 29%
  pest or weed control at 70 g/ha: 0 to 29%
  pest or weed control at 140 g/ha: 0 to 29%
